Laboratory results as given in ChEMBL document CHEMBL4665799, “Synthesis and biological evaluation of diaryl urea derivatives as FLT3 inhibitors” (Bioorg Med Chem Lett, 2020).

How the values were obtained:
[1] = test system: Receptor-type tyrosine-protein kinase FLT3 (Homo sapiens), P36888 [UNDEFINED MUTATION]; conditions: dose 500.0 nM
Description: Inhibition of FLT3 ITD mutant (unknown origin) at 500 nM relative to control

MV4-11 [2] = assay: cells; conditions: Homo sapiens
Description: Antiproliferative activity against human MV4-11 cells assessed as reduction in cell viability

[3] = target: Receptor-type tyrosine-protein kinase FLT3 (Homo sapiens, UniProt P36888, ITD)
Description: Inhibition of FLT3 ITD mutant (unknown origin)

MV4-11 [4] = assay: Potency index, ratio of quizartinib IC50 to test compound IC50 for antiproliferative activity against human MV4-11 cells assessed as reduction in cell viability; type: functional

Chain of Receptor-type tyrosine-protein kinase FLT3 (P36888 whole entry, looked up, stated change not applied): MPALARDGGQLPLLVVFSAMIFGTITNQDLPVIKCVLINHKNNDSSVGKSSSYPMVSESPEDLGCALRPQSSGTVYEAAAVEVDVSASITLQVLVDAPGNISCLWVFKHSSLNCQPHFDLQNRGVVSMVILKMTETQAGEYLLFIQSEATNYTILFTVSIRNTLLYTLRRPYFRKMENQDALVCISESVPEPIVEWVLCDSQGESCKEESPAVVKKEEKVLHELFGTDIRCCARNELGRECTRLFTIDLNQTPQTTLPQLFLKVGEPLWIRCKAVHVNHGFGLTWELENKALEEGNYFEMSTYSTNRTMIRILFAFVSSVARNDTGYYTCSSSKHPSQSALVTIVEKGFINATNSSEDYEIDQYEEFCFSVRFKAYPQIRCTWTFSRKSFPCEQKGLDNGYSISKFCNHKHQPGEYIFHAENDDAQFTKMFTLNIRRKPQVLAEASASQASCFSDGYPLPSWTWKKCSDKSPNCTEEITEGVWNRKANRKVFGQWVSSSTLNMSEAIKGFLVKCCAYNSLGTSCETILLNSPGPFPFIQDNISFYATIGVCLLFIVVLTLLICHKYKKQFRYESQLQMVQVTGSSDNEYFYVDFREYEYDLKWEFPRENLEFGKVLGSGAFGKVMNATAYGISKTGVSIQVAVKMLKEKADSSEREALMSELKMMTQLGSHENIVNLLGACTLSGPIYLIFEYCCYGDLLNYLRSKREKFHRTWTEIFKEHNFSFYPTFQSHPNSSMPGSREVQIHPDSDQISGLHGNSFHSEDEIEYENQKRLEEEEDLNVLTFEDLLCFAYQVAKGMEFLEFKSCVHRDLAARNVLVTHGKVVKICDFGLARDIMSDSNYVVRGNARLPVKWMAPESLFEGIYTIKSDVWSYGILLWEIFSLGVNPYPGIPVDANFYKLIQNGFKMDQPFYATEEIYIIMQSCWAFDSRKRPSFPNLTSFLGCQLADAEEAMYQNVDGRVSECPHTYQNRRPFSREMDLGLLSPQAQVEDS
Chain of Receptor-type tyrosine-protein kinase FLT3 (Homo sapiens), P36888 [UNDEFINED MUTATION] (P36888 whole entry, looked up, change not shown): as the sequence (P36888 whole entry, looked up, stated change not applied) above

SMILES | inhibition [1] | IC50 (MV4-11 [2]) | IC50 [3] | Ratio IC50 (MV4-11 [4])
COc1ccc2nc(NC(=O)Cc3ccc(NC(=O)Nc4cc(C)no4)cc3)sc2c1 | 4.5% |  |  | 
Cc1cc(NC(=O)Nc2ccc(-c3cn4c(n3)sc3cc(OCCN5CCOCC5)ccc34)cc2)on1 | 66.7% | 0.0331 µM | 0.157 µM | 
Cc1cc(NC(=O)Nc2ccc3c(c2)sc2nc(-c4ccc(OCCN5CCOCC5)cc4)cn23)no1 | 82.5% | 0.0399 µM | 0.0826 µM | 
CC(C)(C)c1cc(NC(=O)Nc2ccc3c(c2)sc2nc(-c4ccc(OCCN5CCOCC5)cc4)cn23)on1 | 99.3% | 0.000614 µM | 0.00683 µM | 
Cc1cc(NC(=O)Nc2ccc(CC(=O)Nc3ccc(-c4cn5c(n4)sc4cc(OCCN6CCOCC6)ccc45)cc3)cc2)no1 | 35.8% |  |  | 
Cc1cc(NC(=O)Nc2ccc3c(c2)sc2nc(-c4ccc(OCCN5CCOCC5)cc4)cn23)on1 | 76.9% | 0.0887 µM | 0.109 µM | 
COc1ccc2nc(NC(=O)Cc3ccc(NC(=O)Nc4cc(C)on4)cc3)sc2c1 | -2% |  |  | 
COc1ccc2c(c1)sc1nc(-c3ccc(NC(=O)Nc4cc(C(C)(C)C)no4)cc3)cn12 | 97.2% | 0.00197 µM | 0.0205 µM | 
Cc1cc(NC(=O)Nc2ccc(C(=O)Nc3ccc(-c4cn5c(n4)sc4cc(OCCN6CCOCC6)ccc45)cc3)cc2)on1 | 28.1% |  |  | 
Cc1cc(NC(=O)Nc2ccc(CC(=O)Nc3ccc(-c4cn5c(n4)sc4cc(OCCN6CCOCC6)ccc45)cc3)cc2)on1 | 45.9% |  |  | 
CC(C)(C)c1cc(NC(=O)Nc2ccc(CC(=O)Nc3ccc(-c4cn5c(n4)sc4cc(OCCN6CCOCC6)ccc45)cc3)cc2)on1 | 38.5% |  |  | 
CC(C)(C)c1cc(NC(=O)Nc2ccc(C(=O)Nc3ccc(-c4cn5c(n4)sc4cc(OCCN6CCOCC6)ccc45)cc3)cc2)on1 | 41.9% |  |  | 
CC(C)(C)c1cc(NC(=O)Nc2ccc3c(c2)sc2nc(-c4ccc(OCCN5CCOCC5)cc4)cn23)no1 | 98.8% | 0.000782 µM | 0.00825 µM | 
COc1ccc2c(c1)sc1nc(-c3ccc(NC(=O)Nc4cc(C)on4)cc3)cn12 | 67.3% |  |  | 
CC(C)(C)c1cc(NC(=O)Nc2ccc(C(=O)Nc3ccc(-c4cn5c(n4)sc4cc(OCCN6CCOCC6)ccc45)cc3)cc2)no1 | 35% |  |  | 
Cc1cc(NC(=O)Nc2ccc(-c3cn4c(n3)sc3cc(OCCN5CCOCC5)ccc34)cc2)no1 | 79.9% |  |  | 
COc1ccc2nc(NC(=O)Cc3ccc(NC(=O)Nc4cc(C(C)(C)C)no4)cc3)sc2c1 | 6.4% |  |  | 
COc1ccc2c(c1)sc1nc(-c3ccc(NC(=O)Nc4cc(C)no4)cc3)cn12 | 52.6% |  |  | 
CC(C)(C)c1cc(NC(=O)Nc2ccc(CC(=O)Nc3ccc(-c4cn5c(n4)sc4cc(OCCN6CCOCC6)ccc45)cc3)cc2)no1 | 36% |  |  | 
CC(C)(C)c1cc(NC(=O)Nc2ccc(-c3cn4c(n3)sc3cc(OCCN5CCOCC5)ccc34)cc2)on1 | 99.6% | 0.000176 µM | 0.0056 µM | 4.75
Cc1cc(NC(=O)Nc2ccc(C(=O)Nc3ccc(-c4cn5c(n4)sc4cc(OCCN6CCOCC6)ccc45)cc3)cc2)no1 | 29% |  |  | 
COc1ccc2nc(NC(=O)Cc3ccc(NC(=O)Nc4cc(C(C)(C)C)on4)cc3)sc2c1 | 2.5% |  |  | 
